The target of the assay is T1, glucocorticoid receptor (Homo sapiens, UniProt P04150).
T1 construct: endogenous in cells
T1 sequence (P04150 1-777): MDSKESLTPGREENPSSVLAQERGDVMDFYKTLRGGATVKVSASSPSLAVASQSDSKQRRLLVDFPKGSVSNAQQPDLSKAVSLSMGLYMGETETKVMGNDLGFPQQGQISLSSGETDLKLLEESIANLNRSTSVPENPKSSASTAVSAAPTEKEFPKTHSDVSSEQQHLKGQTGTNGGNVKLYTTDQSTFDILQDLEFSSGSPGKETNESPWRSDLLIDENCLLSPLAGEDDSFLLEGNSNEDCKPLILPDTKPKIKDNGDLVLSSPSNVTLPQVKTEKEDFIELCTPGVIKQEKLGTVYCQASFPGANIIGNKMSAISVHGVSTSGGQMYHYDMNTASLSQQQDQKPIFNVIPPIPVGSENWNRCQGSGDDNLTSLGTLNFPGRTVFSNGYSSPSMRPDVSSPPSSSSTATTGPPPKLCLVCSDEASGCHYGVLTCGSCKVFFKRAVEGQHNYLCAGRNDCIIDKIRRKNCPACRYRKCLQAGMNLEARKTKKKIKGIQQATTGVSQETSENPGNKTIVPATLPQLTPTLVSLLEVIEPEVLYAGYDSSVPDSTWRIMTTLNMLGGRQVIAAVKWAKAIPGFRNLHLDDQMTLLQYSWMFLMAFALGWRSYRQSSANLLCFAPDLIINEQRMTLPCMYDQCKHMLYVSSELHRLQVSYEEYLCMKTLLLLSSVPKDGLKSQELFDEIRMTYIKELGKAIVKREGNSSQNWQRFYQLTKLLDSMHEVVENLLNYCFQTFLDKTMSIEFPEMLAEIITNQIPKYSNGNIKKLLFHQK
Description: Ligand binding assay (GR BIND). The method in brief: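 Displacement of tritiated dexamethasone (6 nM trace solution) from receptor in cell supernatant was measured after overnight incubation at 4 °C in molybdate-containing TEGM, pH 7.2, 2% ethanol. Hydroxylapatite pulled down the receptor–ligand complex for filter washing and scintillation counting, with dexamethasone as reference.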

For orientation: Ki means the equilibrium dissociation constant of an inhibitor or competing ligand from its target. In turn, `C[C@]12Cc3cnn(-c4ccccc4)c3C=C1CC[C@@H]2CN(CCc1ccccn1)S(=O)(=O)CC(F)(F)F` [Example 138, 2,2,2-trifluoro-N-{[(4αR,5S)-4α-methyl-1-phenyl-1,4,4α,5,6,7-hexahydrocyclopenta[f]indazol-5-yl]methyl}-N-(2-pyridin-2-ylethyl)ethanesulfonamide] came in with a Ki of 1.2 nM.

Regarding `COc1ccccc1CCN(C[C@H]1CCC2=Cc3c(cnn3-c3ccccc3)C[C@@]21C)S(=O)(=O)CC(F)(F)F` [Example 139, 2,2,2-trifluoro-N-[2-(2-methoxyphenyl)ethyl]-N-{[(4αR,5S)-4α-methyl-1-phenyl-1,4,4α,5,6,7-hexahydrocyclopenta[f]indazol-5-yl]methyl}ethanesulfonamide], the inhibition constant Ki was determined as 1.5 nM.

Consider `C[C@]12Cc3cnn(-c4ccccc4)c3C=C1CC[C@@H]2CN(CCc1ccccn1)S(=O)(=O)Cc1cccnc1` [Example 140, N-{[(4αR,5S)-4α-methyl-1-phenyl-1,4,4α,5,6,7-hexahydrocyclopenta[f]indazol-5-yl]methyl}-1-pyridin-3-yl-N-(2-pyridin-2-ylethyl)methanesulfonamide], for which the Ki worked out at 4.1 nM.

In the case of `C[C@]12Cc3cnn(-c4ccccc4)c3C=C1CC[C@@H]2CN(CCc1ccccc1O)S(=O)(=O)Cc1cccnc1` [Example 141, N-[2-(2-hydroxyphenyl)ethyl]-N-{[(4αR,5S)-4α-methyl-1-phenyl-1,4,4α,5,6,7-hexahydrocyclopenta[f]indazol-5-yl]methyl}-1-pyridin-3-ylmethanesulfonamide], the affinity, expressed as Ki, was 1.1 nM.

In turn, `C[C@]12Cc3cnn(-c4ccc(F)cc4)c3C=C1CC[C@@H]2CN(CC(O)c1ccccn1)S(=O)(=O)CC(F)(F)F` (stereo partly drawn) [Example 142, 2,2,2-trifluoro-N-{[(4αR,5S)-1-(4-fluorophenyl)-4α-methyl-1,4,4α,5,6,7-hexahydrocyclopenta[f]indazol-5-yl]methyl}-N-(2-hydroxy-2-pyridin-2-ylethyl)ethanesulfonamide] had an inhibitory constant (Ki) of 0.9 nM.

With `C[C@]12Cc3cnn(-c4ccc(F)cc4)c3C=C1CC[C@@H]2CN(CC(O)c1cccnc1)S(=O)(=O)CC(F)(F)F` (stereo partly drawn) [Example 143, 2,2,2-trifluoro-N-{[(4αR,5S)-1-(4-fluorophenyl)-4α-methyl-1,4,4α,5,6,7-hexahydrocyclopenta[f]indazol-5-yl]methyl}-N-(2-hydroxy-2-pyridin-3-ylethyl)ethanesulfonamide], the affinity, expressed as Ki, was 13.3 nM.

`C[C@]12Cc3cnn(-c4ccc(F)cc4)c3C=C1CC[C@@H]2CN(CC(O)c1ccncc1)S(=O)(=O)CC(F)(F)F` (stereo partly drawn) [Example 144, 2,2,2-trifluoro-N-{[(4αR,5S)-1-(4-fluorophenyl)-4α-methyl-1,4,4α,5,6,7-hexahydrocyclopenta[f]indazol-5-yl]methyl}-N-(2-hydroxy-2-pyridin-4-ylethyl)ethanesulfonamide] yielded a Ki of 0.9 nM. This Ki lies about 15-fold lower than the previous one.

Consider `C[C@]12Cc3cnn(-c4ccc(F)cc4)c3C=C1CC[C@@H]2CN(CC(OS(=O)(=O)CC(F)(F)F)c1ccccn1)S(=O)(=O)CC(F)(F)F` (stereo partly drawn) [Example 145, 2-{{[(4αR,5S)-1-(4-fluorophenyl)-4α-methyl-1,4,4α,5,6,7-hexahydrocyclopenta[f]indazol-5-yl]methyl}[(2,2,2-trifluoroethyl)sulfonyl]amino}-1-pyridin-2-ylethyl 2,2,2-trifluoroethanesulfonate], for which affinity was put at a Ki of 1 nM.

Consider `CC(CN(C[C@H]1CCC2=Cc3c(cnn3-c3ccc(F)cc3)C[C@@]21C)S(=O)(=O)CC(F)(F)F)c1cccnc1` (stereo partly drawn) [Example 146, 2,2,2-trifluoro-N-{[(4αR,5S)-1-(4-fluorophenyl)-4α-methyl-1,4,4α,5,6,7-hexahydrocyclopenta[f]indazol-5-yl]methyl}-N-(2-pyridin-3-ylpropyl)ethanesulfonamide], for which the affinity corresponds to a Ki of 0.8 nM.

On to `C[C@]12Cc3cnn(-c4ccc(F)cc4)c3C=C1CC[C@@H]2CN(CCC(N)C(F)(F)F)S(=O)(=O)CC(F)(F)F` (stereo partly drawn) [Example 147, N-(3-amino-4,4,4-trifluorobutyl)-2,2,2-trifluoro-N-{[(4aR,5S)-1-(4-fluorophenyl)-4α-methyl-1,4,4α,5,6,7-hexahydrocyclopenta[f]indazol-5-yl]methyl}ethanesulfonamide], for which the affinity, expressed as Ki, was 3.2 nM. Compared with the last compound, the Ki is about 4-fold higher.

Compound `CCCS(=O)(=O)N(CC(O)C(F)(F)F)C[C@H]1CCC2=Cc3c(cnn3-c3ccc(F)cc3)C[C@@]21C` (stereo partly drawn) [Example 148, N-{[(4αR,5S)-1-(4-fluorophenyl)-4α-methyl-1,4,4α,5,6,7-hexahydrocyclopenta[f]indazol-5-yl]methyl}-N-(3,3,3-trifluoro-2-hydroxypropyl)propane-1-sulfonamide] gave a Ki of 1.6 nM.

As to `C[C@]12Cc3cnn(-c4ccc(F)cc4)c3C=C1CC[C@@H]2CN(CC(O)C(F)(F)F)S(=O)(=O)Cc1cccnc1` (stereo partly drawn) [Example 149, N-{[(4αR,5S)-1-(4-fluorophenyl)-4α-methyl-1,4,4α,5,6,7-hexahydrocyclopenta[f]indazol-5-yl]methyl}-1-pyridin-3-yl-N-(3,3,3-trifluoro-2-hydroxypropyl)methanesulfonamide], the inhibitory constant (Ki) came out at 1.8 nM.

`Cn1cc(S(=O)(=O)N(CCc2ccccn2)C[C@H]2CCC3=Cc4c(cnn4-c4ccc(F)cc4)C[C@@]32C)c(C(F)(F)F)n1` [Example 150, N-{[(4αR,5S)-1-(4-fluorophenyl)-4α-methyl-1,4,4α,5,6,7-hexahydrocyclopenta[f]indazol-5-yl]methyl}-1-methyl-N-(2-pyridin-2-ylethyl)-3-(trifluoromethyl)-1H-pyrazole-4-sulfonamide] came in with a Ki of 1.5 nM.

`CCCS(=O)(=O)N(CCc1ccccn1)C[C@H]1CCC2=Cc3c(cnn3-c3ccc(F)cc3)C[C@@]21C` [Example 151, N-{[(4αR,5S)-1-(4-fluorophenyl)-4α-methyl-1,4,4α,5,6,7-hexahydrocyclopenta[f]indazol-5-yl]methyl}-N-(2-pyridin-2-ylethyl)propane-1-sulfonamide]: the Ki was determined as 1.3 nM. This Ki and that of the compound before are within 1.5-fold of each other.

The compound `C[C@]12Cc3cnn(-c4ccc(F)cc4)c3C=C1CC[C@@H]2CN(CCc1ccccn1)S(=O)(=O)CCN1C(=O)c2ccccc2C1=O` [Example 152, 2-(1,3-dioxo-1,3-dihydro-2H-isoindol-2-yl)-N-{[(4αR,5S)-1-(4-fluorophenyl)-4α-methyl-1,4,4α,5,6,7-hexahydrocyclopenta[f]indazol-5-yl]methyl}-N-(2-pyridin-2-ylethyl)ethanesulfonamide] came in with a Ki of 1.6 nM.

`C[C@]12Cc3cnn(-c4ccc(F)cc4)c3C=C1CC[C@@H]2CN(CCc1ccccn1)S(=O)(=O)Cc1ccccc1C(F)(F)F` [Example 153, N-{[(4αR,5S)-1-(4-fluorophenyl)-4α-methyl-1,4,4α,5,6,7-hexahydrocyclopenta[f]indazol-5-yl]methyl}-N-(2-pyridin-2-ylethyl)-1-[2-(trifluoromethyl)phenyl]methanesulfonamide] registered an inhibition constant (Ki) of 1.2 nM.

With `C[C@]12Cc3cnn(-c4ccc(F)cc4)c3C=C1CC[C@@H]2CN(CC(O)C(F)F)S(=O)(=O)Cc1cccnc1` (stereo partly drawn) [Example 154, N-(3,3-difluoro-2-hydroxypropyl)-N-{[(4αR,5S)-1-(4-fluorophenyl)-4α-methyl-1,4,4α,5,6,7-hexahydrocyclopenta[f]indazol-5-yl]methyl}-1-pyridin-3-ylmethanesulfonamide], the affinity, expressed as Ki, was 1.3 nM.

In turn, `CCCS(=O)(=O)N(CC(O)C(F)F)C[C@H]1CCC2=Cc3c(cnn3-c3ccc(F)cc3)C[C@@]21C` (stereo partly drawn) [Example 155, N-(3,3-difluoro-2-hydroxypropyl)-N-{[(4αR,5S)-1-(4-fluorophenyl)-4α-methyl-1,4,4α,5,6,7-hexahydrocyclopenta[f]indazol-5-yl]methyl}propane-1-sulfonamide] registered a Ki of 2.9 nM.

The compound `Cn1cc(S(=O)(=O)N(CC(O)C(F)F)C[C@H]2CCC3=Cc4c(cnn4-c4ccc(F)cc4)C[C@@]32C)c(C(F)(F)F)n1` (stereo partly drawn) [Example 156, N-(3,3-difluoro-2-hydroxypropyl)-N-{[(4αR,5S)-1-(4-fluorophenyl)-4α-methyl-1,4,4α,5,6,7-hexahydrocyclopenta[f]indazol-5-yl]methyl}-1-methyl-3-(trifluoromethyl)-1H-pyrazole-4-sulfonamide] displayed a Ki of 2.5 nM.

In the case of `Cn1cc(S(=O)(=O)N(CC(O)c2ccccn2)C[C@H]2CCC3=Cc4c(cnn4-c4ccc(F)cc4)C[C@@]32C)c(C(F)(F)F)n1` (stereo partly drawn) [Example 157, N-{[(4αR,5S)-1-(4-fluorophenyl)-4α-methyl-1,4,4α,5,6,7-hexahydrocyclopenta[f]indazol-5-yl]methyl}-N-(2-hydroxy-2-pyridin-2-ylethyl)-1-methyl-3-(trifluoromethyl)-1H-pyrazole-4-sulfonamide], the inhibitory constant (Ki) was 0.8 nM.

Regarding `C[C@]12Cc3cnn(-c4ccc(F)cc4)c3C=C1CC[C@@H]2CN(CC=O)S(=O)(=O)c1ccccc1F` [Example 158, 2-fluoro-N-{[(4αR,5S)-1-(4-fluorophenyl)-4α-methyl-1,4,4α,5,6,7-hexahydrocyclopenta[f]indazol-5-yl]methyl}-N-(2-oxoethyl)benzenesulfonamide], the Ki came to 4.2 nM. This Ki is about 5.2-fold higher than that of the compound before.

The values above are taken from patent publication US8299048B2, “Hexahydrocyclopentyl[f]indazole sulfonamides and derivatives thereof as selective glucocorticoid receptor modulators” (Merck Sharp & Dohme Corp., priority 2008, dated 2012).
